From US10766882B2, “1,2-naphthoquinone based derivative and method of preparing the same” (YUNGJIN PHARM. CO., LTD., priority 2013, dated 2020)

What was measured:
NQO1 protein = NQO1 protein (Homo sapiens, UniProt P15559); assay: NQO1 activity measurement (cytochrome C reduction); type: biochemical; conditions: 5 ng NQO1 protein, 200 μM NADH, 77 μM cytochrome C, 37° C., absorbance 550 nm for 10 minutes
Experimental: An enzyme reaction solution included 25 mM Tris/HCl (pH 7.4), 0.14% bovine serum albumin, 200 μM NADH, 77 μM cytochrome C, and 5 ng of NQO1 protein. Enzymatic reaction was initiated by adding NADH and performed at 37° C. In this regard, a reaction rate was measured by observing absorbance, which was increased due to reduction of cytochrome C, at 550 nm for 10 minutes and NQO1 activity was represented as an amount of reduced cytochrome C [nmol cytochrome C reduced/min/μg protein].
Extinction coefficient for cytochrome C:21.1 mmol/L/cm=21.1 μmol/ml/cm

Cells = assay: Measurement of lactate change amount within cells; type: cell-based; conditions: PCA extract of cells, lactate measured from supernatant (Megazyme, K-LATE)
Experimental: Cells were treated with 400 μl of 6% PCA, and then collected and extracted. Centrifugation (13,000 rpm, 10 min) was performed. A precipitate was dried using a Speed-Vac and then a weight of dried precipitate was measured. A supernatant was neutralized using 400 μl of 1 M KOH and a final volume thereof was adjusted to 1 ml using 0.33 M KH2PO4/K2HPO4, pH 7.5. Centrifugation (13,000 rpm, 10 min) was performed and the amount of lactate was measured from a supernatant (Megazyme, K-LATE).

C57BL/6J Lep ob/ob mice = assay: Weight loss effects in obese mice (ob/ob); type: in vivo; conditions: Exp. Ex. 3-3, FIG. 3: 11 week-old ob/ob mice, 100 mg/kg oral, total of 6 days, vs 0.1% SLS controls
Experimental: 10 week-old C57BL/6J Lep ob/ob mice having genetic obesity characteristics available from ORIENTBIO were prepared. Two mice were raised in each polycarbonate breeding cage (200 W×260 L×130H (mm), Three-shine) in which temperature was 20 to 24° C., relative humidity was 35 to 65%, illuminance was 150 to 300 lux, night and day were 12 hours, and exhaust was performed at 10 to 15 air changes per hour. As a feed, low fat diet (11.9 kcal % fat, 5053, Labdiet) manufactured by ORIENTBIO was used. The feed was contained in a feeder and free intake was allowed. As drinking water, water, which was contained in a 250 mL polycarbonate based bottle, purified through a filter and a sterilizer was used and free intake was allowed.
The compound according to Example 1 synthesized in the present invention was orally administered to three C57BL/6J Lep ob/ob mice in amounts of 40 mg/kg, 80 mg/kg, and 120 mg/kg, respectively, once every day for two weeks. For administration, a disposable syringe fitted with a sonde for oral administration was used and 10 ml/kg of the compound was orally administered into the stomach. As controls, three C57BL/6J Lep ob/ob mice were administered 0.1% sodium lauryl sulfate (SLS) in an amount of 120 mg/kg in the same manner as described above. After administration, a time-dependent weight increase ratio, weight change, and intake amount were measured and results are illustrated in FIG. 1 below.
Weights of the experimental animals were measured immediately before administration of a test material and seven times a week from an administration initiation day to a test termination day. Increased total weights were calculated by subtracting weights measured on an experiment initiation day from weights measured one day before an experiment termination day. Food intake amounts were calculated by measuring feed supply amounts and remaining amounts twice a week from an initiation day of test material administration to a test termination day for each individual. […]
(§1) Experiments were performed under the same conditions as in Experimental Example 3-1 except that 15 week-old C57BL/6J Lep ob/ob mice having genetic obesity characteristics available from ORIENTBIO were prepared, the compounds according to Examples 5 and 6 were administered to three C57BL/6J Lep ob/ob mice in an amount of 150 mg/kg, 150 mg/kg of 0.1% SLS was administered to each of three C57BL/6J Lep ob/ob mice as controls, and experiments were performed for a total of one week. Weight increase ratios, weight change, and intake amounts depending on administration time were measured and results are illustrated in FIG. 5 below.
as §1, with “that 10” for “that 15”, “Examples 8, 9,” for “Examples 5”, “and 12” for “and 6”, “FIG. 6” for “FIG. 5”
Experiments were performed under the same conditions as in Experimental Example 3-1 except that 6 week-old C57BL/6J Lep ob/ob mice having genetic obesity characteristics available from ORIENTBIO were prepared, the compounds according to Examples 17, 18, 22, and 23 were administered to three C57BL/6J Lep ob/ob mice in an amount of 100 mg/kg, 100 mg/kg of 0.1% SLS was administered to each of three C57BL/6J Lep ob/ob mice as controls, and experiments were performed for a total of one week. Weight increase ratios, weight change, and intake amounts depending on administration time were measured and results are illustrated in FIG. 10 below. […]

NQO1 protein, sequence (P15559 whole entry, species assumed): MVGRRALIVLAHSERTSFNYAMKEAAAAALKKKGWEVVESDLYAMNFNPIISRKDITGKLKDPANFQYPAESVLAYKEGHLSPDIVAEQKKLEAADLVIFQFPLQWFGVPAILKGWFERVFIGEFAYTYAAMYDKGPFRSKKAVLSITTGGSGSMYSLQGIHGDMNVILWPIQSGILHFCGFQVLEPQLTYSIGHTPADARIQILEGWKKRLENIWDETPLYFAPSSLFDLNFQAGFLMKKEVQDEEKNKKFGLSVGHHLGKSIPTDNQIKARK

Structure (SMILES)	NQO1 activity (5 μM, [nmol cytochrome C reduced/min/μg protein]) (NQO1 protein)	Lactate change amount within cells (nmol/mg cell) (Cells)	intake amount (C57BL/6J Lep ob/ob mice)	weight increase ratio (C57BL/6J Lep ob/ob mice)
CC(C)(C)c1nc2c([nH]1)C(=O)C(=O)c1cccnc1-2 [Example 27]	207.4 nmol cytochrome C reduced/min/μg protein	9.6 nmol/mg cell		
O=C1C(=O)c2nccnc2-c2ccccc21 [Example 13]	291 nmol cytochrome C reduced/min/μg protein		significantly decreased	significantly decreased
CCc1nc2c([nH]1)C(=O)C(=O)c1cc(NCc3ccc(F)cc3)ccc1-2 [Example 47]	41.0 nmol cytochrome C reduced/min/μg protein	5.9 nmol/mg cell		
CCc1nc2c([nH]1)C(=O)C(=O)c1cc(N)ccc1-2 [Example 25]	173.1 nmol cytochrome C reduced/min/μg protein	6.1 nmol/mg cell		
CCc1nc2c(n1C)C(=O)C(=O)c1cc(Cl)ccc1-2 [Example 43, 7-chloro-2-ethyl-3-methyl-3H-naphtho[2,1-d]imidazole-4,5-dione]	111.6 nmol cytochrome C reduced/min/μg protein	6.0 nmol/mg cell		
CC(C)(C)c1nc2c(n1Cc1ccccc1)C(=O)C(=O)c1cccnc1-2 [Example 46, 3-benzyl-2-tert-butyl-3H-imidazo[4,5-h]quinoline-4,5-dione]	160.1 nmol cytochrome C reduced/min/μg protein	8.9 nmol/mg cell		
CCn1c(C(C)C)nc2c1C(=O)C(=O)c1ccccc1-2 [Example 36]	164.6 nmol cytochrome C reduced/min/μg protein	7.8 nmol/mg cell		
CC(C)C(=O)n1c(C(C)C)nc2c1C(=O)C(=O)c1ccccc1-2 [Example 28]	177.2 nmol cytochrome C reduced/min/μg protein	6.8 nmol/mg cell		
CC(C)(C)c1nc2c([nH]1)C(=O)C(=O)c1ncccc1-2 [Example 7, 2-tert-butyl-3H-imidazo[4,5-f]quinoline-4,5-dione]	55 nmol cytochrome C reduced/min/μg protein	11.4 nmol/mg cell		
CCc1nc2c(n1C)-c1ccc(F)cc1C(=O)C2=O [Example 42, 2-ethyl-7-fluoro-1-methyl-1H-naphtho[2,1-d]imidazole-4,5-dione]	57.0 nmol cytochrome C reduced/min/μg protein	8.9 nmol/mg cell		
CCOC(=O)n1c(C(C)C)nc2c1C(=O)C(=O)c1ccccc1-2 [Example 37]	215.7 nmol cytochrome C reduced/min/μg protein	10.3 nmol/mg cell		
O=C1C(=O)c2[nH]c(Cc3ccccc3)nc2-c2ccccc21 [Example 11]	178 nmol cytochrome C reduced/min/μg protein	7.2 nmol/mg cell		
CC(C)c1nc2c(n1Cc1ccccc1)-c1ccccc1C(=O)C2=O [Example 2, 1-benzyl-2-isopropyl-1H-naphtho[2,1-d]imidazole-4,5-dione]	143 nmol cytochrome C reduced/min/μg protein	7.3 nmol/mg cell		
CCc1nc2c(n1C)-c1ccc(Cl)cc1C(=O)C2=O [Example 44, 7-chloro-2-ethyl-1-methyl-1H-naphtho[2,1-d]imidazole-4,5-dione]	43.4 nmol cytochrome C reduced/min/μg protein	9.5 nmol/mg cell		
CC(C)c1nc2c(n1Cc1cccc(Cl)c1)C(=O)C(=O)c1ccccc1-2 [Example 34]	153.5 nmol cytochrome C reduced/min/μg protein	4.9 nmol/mg cell		
Cn1c(C(C)(C)C)nc2c1-c1cccnc1C(=O)C2=O [Example 14]	179 nmol cytochrome C reduced/min/μg protein	12.4 nmol/mg cell		
CC(C)(C)Cc1nc2c([nH]1)C(=O)C(=O)c1ccccc1-2 [Example 15, 2-neopentyl-1H-naphtho[2,1-d]imidazole-4,5-dione]	183.3 nmol cytochrome C reduced/min/μg protein	7.2 nmol/mg cell		
CCc1nc2c(n1CC(F)(F)F)C(=O)C(=O)c1ccccc1-2 [Example 40, 2-ethyl-3-(2,2,2-trifluoroethyl)-3H-naphtho[2,1-d]imidazole-4,5-dione]	192.9 nmol cytochrome C reduced/min/μg protein	9.7 nmol/mg cell		
CCc1nc2c(n1C)-c1ccccc1C(=O)C2=O [Example 39, 2-ethyl-1-methyl-1H-naphtho[2,1-d]imidazole-4,5-dione]	104.7 nmol cytochrome C reduced/min/μg protein	8.4 nmol/mg cell		
CC(=O)Nc1ccc2c(c1)C(=O)C(=O)c1[nH]c(C(C)C)nc1-2 [Example 19]	24.6 nmol cytochrome C reduced/min/μg protein	6.5 nmol/mg cell		
COc1ccc(-c2nc3c([nH]2)C(=O)C(=O)c2ccccc2-3)cc1 [Example 10]	103 nmol cytochrome C reduced/min/μg protein	9.9 nmol/mg cell		
O=C1C(=O)c2[nH]c(CNc3ccccc3)nc2-c2ccccc21 [Example 49]	128.4 nmol cytochrome C reduced/min/μg protein	5.2 nmol/mg cell		
CC(C)c1nc2c([nH]1)C(=O)C(=O)c1cc([N+](=O)[O-])ccc1-2 [Example 16]	94.0 nmol cytochrome C reduced/min/μg protein	5.8 nmol/mg cell		
